In experiment [1] the target is T1, Methionine aminopeptidase 2 (Homo sapiens, UniProt P50579). Nature of the experiment: Induction of MetAP2 degradation in human HEK293 cells. The format is cell-based.
Experiment [2] has as its target T1, Methionine aminopeptidase 2. Nature of the experiment: Induction of MetAP2 degradation in human U87MG cells. The format is cell-based. The note with it: u87mg human egfr viii.
The target in experiment [3] is Sequestosome-1/Microtubule-associated protein tau (Homo sapiens, UniProt P10636+Q13501, P618L). Kind of experiment: Autotac activity at p62/tau P301L mutant in human SH-SY5Y cells assessed as tau P301L degradation. The format is cell-based.
Sequence of Sequestosome-1/Microtubule-associated protein tau (P10636 2-758 P618L limits assumed, stated change not applied): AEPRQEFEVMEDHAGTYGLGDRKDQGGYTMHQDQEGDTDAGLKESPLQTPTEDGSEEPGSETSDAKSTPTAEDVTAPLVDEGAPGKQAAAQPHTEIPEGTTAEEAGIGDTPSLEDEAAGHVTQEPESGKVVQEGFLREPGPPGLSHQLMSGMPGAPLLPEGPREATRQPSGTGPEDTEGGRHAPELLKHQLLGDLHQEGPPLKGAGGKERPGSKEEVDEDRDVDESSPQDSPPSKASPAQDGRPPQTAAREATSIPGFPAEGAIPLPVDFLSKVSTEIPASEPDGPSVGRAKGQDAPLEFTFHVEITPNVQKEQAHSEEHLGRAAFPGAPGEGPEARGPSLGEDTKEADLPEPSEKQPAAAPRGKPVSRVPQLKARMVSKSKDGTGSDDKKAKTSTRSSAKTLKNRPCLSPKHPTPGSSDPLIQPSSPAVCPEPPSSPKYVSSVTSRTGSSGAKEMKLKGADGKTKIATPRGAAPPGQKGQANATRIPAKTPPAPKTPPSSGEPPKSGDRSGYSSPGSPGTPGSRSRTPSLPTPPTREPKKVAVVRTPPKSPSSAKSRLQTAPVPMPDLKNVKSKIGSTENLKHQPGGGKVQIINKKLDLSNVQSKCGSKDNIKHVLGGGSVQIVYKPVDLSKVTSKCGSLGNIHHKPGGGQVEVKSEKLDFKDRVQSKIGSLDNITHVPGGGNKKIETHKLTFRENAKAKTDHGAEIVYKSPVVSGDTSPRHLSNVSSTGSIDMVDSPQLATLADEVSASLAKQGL
Sequence of Sequestosome-1/Microtubule-associated protein tau (Q13501 2-440 limits assumed, stated change not applied): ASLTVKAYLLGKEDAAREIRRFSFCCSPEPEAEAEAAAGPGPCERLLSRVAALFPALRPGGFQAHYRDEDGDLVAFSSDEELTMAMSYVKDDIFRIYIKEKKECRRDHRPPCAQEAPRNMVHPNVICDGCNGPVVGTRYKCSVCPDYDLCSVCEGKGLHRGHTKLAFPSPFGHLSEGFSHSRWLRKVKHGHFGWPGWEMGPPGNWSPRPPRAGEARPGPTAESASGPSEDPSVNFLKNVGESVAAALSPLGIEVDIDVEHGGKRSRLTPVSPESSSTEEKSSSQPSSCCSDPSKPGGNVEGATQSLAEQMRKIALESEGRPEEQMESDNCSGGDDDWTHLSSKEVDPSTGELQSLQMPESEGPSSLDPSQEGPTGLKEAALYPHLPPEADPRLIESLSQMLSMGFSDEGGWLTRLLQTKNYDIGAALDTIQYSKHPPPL
The nature of experiment [4]: Induction of huntingtin polyQ mutant degradation in human A 172 cells. The format is cell-based.
Experiment [5] deals with Cortical neuron. Kind of experiment: Induction of huntingtin polyQ mutant degradation in mouse primary cortical neuron. The format is cell-based. The settings on record: dose 10.0 µM.
Experiment [6] in a line: Downregulation of extracellular oleic acid induced lipid droplets in MEF cells. The format is functional, Mus musculus.
Experiment [7] has as its target T2, Androgen receptor (Homo sapiens, UniProt P10275).
T2 sequence (P10275 whole entry): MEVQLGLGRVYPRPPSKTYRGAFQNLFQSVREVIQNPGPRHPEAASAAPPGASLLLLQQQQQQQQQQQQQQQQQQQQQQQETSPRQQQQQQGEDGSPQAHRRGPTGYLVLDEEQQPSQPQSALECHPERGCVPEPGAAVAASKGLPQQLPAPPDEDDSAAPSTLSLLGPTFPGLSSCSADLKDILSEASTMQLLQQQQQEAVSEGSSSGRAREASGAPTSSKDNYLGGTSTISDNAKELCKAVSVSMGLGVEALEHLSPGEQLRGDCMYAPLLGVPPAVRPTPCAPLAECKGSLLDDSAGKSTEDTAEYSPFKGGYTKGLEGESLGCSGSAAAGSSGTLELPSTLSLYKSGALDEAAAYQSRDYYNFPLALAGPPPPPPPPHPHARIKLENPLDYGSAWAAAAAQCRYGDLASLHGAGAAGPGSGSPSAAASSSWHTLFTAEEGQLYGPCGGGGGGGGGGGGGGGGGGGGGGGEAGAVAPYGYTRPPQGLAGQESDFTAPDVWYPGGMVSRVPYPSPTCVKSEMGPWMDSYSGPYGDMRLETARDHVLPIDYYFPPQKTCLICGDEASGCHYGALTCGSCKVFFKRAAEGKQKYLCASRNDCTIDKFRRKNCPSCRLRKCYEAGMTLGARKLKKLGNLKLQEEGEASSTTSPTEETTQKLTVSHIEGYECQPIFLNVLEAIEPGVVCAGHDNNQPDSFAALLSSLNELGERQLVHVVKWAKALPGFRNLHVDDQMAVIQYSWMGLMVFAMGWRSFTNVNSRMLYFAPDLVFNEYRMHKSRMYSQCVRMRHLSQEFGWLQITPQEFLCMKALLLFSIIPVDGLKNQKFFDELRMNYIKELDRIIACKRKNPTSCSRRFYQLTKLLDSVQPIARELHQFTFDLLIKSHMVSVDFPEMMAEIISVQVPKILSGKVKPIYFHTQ
Nature of the experiment: Induction of AR degradation in human LNCaP cells. The format is cell-based.

In experiment [8] the target is Bromodomain-containing protein 4 (Homo sapiens) (UniProt O60885). Nature of the experiment: Induction of BRD4 degradation in human HeLa cells relative to control. The format is cell-based.
For experiment [9] the target is unchanged. Kind of experiment: Induction of BRD4 degradation in human MDA-MB-231 cells at 10 uM relative to control. The format is cell-based.
Experiment [10] concerns the target T3, Sequestosome-1/Estrogen receptor beta (Homo sapiens, UniProt Q92731+Q13501). Nature of the experiment: Autotac activity at p62/ERbeta degradation in HEK293T cells. The format is cell-based.
Experiment [11] has as its target T3, Sequestosome-1/Estrogen receptor beta. Nature of the experiment: Autotac activity at p62/ERbeta degradation in human ACHN cells. The format is cell-based.
Experiment [12] shares this target. Kind of experiment: Autotac activity at p62/ERbeta degradation in human MCF7 cells. The format is cell-based.
The target in experiment [13] is T4, Estrogen receptor beta (Homo sapiens, UniProt Q92731). Kind of experiment: Induction of ERbeta degradation in human HEK293T cells. The format is cell-based.
T4 sequence (Q92731 whole entry): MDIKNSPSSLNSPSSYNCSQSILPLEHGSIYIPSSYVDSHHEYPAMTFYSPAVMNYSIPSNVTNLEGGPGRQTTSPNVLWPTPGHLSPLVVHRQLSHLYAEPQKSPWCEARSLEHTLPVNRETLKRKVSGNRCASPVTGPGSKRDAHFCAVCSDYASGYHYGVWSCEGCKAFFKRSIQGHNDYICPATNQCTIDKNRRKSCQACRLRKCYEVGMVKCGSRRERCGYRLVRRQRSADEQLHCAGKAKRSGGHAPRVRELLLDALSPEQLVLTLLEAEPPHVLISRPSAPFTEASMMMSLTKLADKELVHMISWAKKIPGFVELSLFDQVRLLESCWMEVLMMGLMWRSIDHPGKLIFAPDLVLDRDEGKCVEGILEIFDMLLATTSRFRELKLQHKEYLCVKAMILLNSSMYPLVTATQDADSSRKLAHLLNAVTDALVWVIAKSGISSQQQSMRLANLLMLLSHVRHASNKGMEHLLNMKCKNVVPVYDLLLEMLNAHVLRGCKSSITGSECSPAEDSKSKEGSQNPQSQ
In experiment [14] the target is T4, Estrogen receptor beta. Nature of the experiment: Induction of ERbeta degradation in human ACHN cells. The format is cell-based.
For experiment [15], the target named is T4, Estrogen receptor beta. Kind of experiment: Induction of ERbeta degradation in human MCF7 cells. The format is cell-based.
In experiment [16] the target is T5, Nicotinamide phosphoribosyltransferase (Homo sapiens, UniProt P43490). Kind of experiment: Induction of NAMPT degradation in human A2780 cells. The format is cell-based.
Target sequence in this assay (P43490 whole entry): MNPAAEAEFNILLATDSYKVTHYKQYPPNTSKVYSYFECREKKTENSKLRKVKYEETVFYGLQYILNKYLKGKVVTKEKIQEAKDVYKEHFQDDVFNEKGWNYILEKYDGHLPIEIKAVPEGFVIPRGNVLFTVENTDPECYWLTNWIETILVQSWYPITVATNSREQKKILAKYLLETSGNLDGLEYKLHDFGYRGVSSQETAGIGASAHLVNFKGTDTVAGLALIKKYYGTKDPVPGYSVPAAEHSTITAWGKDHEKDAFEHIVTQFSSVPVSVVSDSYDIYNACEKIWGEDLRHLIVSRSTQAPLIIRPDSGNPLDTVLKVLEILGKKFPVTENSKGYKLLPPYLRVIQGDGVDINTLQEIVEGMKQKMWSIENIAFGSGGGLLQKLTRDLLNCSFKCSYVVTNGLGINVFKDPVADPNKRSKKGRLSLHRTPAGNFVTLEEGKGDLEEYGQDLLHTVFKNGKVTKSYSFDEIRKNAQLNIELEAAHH
In experiment [17] the target is T5, Nicotinamide phosphoribosyltransferase. Nature of the experiment: Induction of NAMPT degradation in human A2780 cells at 3 uM relative to control. The format is cell-based.
Target sequence in this assay (P43490 whole entry, looked up): as the sequence (P43490 whole entry) above

Bounds are passed on as bounds.

T3 sequence (Q92731 whole entry): as the sequence (Q92731 whole entry) above
T3 sequence (Q13501 whole entry): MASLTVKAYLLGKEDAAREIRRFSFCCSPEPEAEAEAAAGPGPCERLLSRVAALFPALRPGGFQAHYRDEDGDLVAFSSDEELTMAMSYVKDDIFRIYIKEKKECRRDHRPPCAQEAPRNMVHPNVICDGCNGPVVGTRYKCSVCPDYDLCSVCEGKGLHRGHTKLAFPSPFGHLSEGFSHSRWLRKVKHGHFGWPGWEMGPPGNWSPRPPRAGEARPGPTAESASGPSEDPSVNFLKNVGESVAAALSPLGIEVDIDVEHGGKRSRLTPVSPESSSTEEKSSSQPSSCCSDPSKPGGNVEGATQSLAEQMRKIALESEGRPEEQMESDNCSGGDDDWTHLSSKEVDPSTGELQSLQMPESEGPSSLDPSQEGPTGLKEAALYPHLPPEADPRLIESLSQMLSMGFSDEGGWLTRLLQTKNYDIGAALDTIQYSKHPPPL
T1 sequence (P50579 whole entry): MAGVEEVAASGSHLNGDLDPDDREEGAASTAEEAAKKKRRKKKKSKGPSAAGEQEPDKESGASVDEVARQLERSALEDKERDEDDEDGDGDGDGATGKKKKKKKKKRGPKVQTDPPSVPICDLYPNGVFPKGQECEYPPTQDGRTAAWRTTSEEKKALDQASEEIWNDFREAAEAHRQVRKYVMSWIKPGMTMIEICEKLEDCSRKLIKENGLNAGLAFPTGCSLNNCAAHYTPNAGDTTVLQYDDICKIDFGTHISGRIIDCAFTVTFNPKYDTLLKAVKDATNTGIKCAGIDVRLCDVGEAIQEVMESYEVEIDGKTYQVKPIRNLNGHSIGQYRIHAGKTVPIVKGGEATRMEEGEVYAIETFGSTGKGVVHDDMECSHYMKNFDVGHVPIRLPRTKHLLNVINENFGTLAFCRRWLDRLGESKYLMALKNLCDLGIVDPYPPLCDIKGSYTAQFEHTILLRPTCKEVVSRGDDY

In general, DC50 refers to the concentration at which degradation of the target reaches its halfway point. `COC1C(OC(=O)/C=C/C=C/C=C/C=C/C(=O)NCCOCCOCCNCc2cccc(OCc3ccccc3)c2)CCC2(CO2)C1C1(C)OC1CC=C(C)C` (centres undefined): the DC50 in experiment [1] is 700 nM; in [2], 500 nM.
Turning to `O=C(CCCc1ccccc1)NCCOCCOCCOCCNCc1ccc(OCc2ccccc2)c(OCc2ccccc2)c1`, the DC50 in [3] worked out at 1 nM.
Broadly, the IC50 is the concentration that gives 50% inhibition. Read a low IC50 as inhibition by little substance. In the case of H-GIYVIWGPITERKKRRKG-NH2, in experiment [4], 57.2 nM corresponded to half-maximal inhibition (IC50).
`O=c1cc(-c2ccccc2)c2c(O)cc(O)cc2o1` returned an ED in experiment [5] of 75 nM.
Turning to `Cc1ccccc1/N=N/c1ccc(/N=N/c2c(OCCCCCCCCCCN3C(=O)/C(=C\c4cc(Br)c(O)c(Br)c4)c4cc(I)ccc43)ccc3ccccc23)c(C)c1`, the ED in experiment [6] worked out at 5 µM.
Take `C=CC(C)(O)C(=O)N(C(=O)NCCOCCOCCNC[C@@H](O)COc1ccc(OCCc2ccccc2)c(OCCCc2ccccc2)c1)c1cc(Cl)cc(Cl)c1` (some centres undefined): in [7], the DC50 came to 200 nM.
Turning to `CC1=C(C)C2C(c3ccc(Cl)cc3)=N[C@@H](CC(=O)NCCCOCCOCCOCCCNC(=O)COc3c(Br)cc(/C=C4\C(=O)Nc5ccc(I)cc54)cc3Br)c3nnc(C)n3C2S1` (some centres undefined), the Activity in experiment [8] was 92%; in experiment [9] it was 99%.
Turning to `O[C@H](CNCCOCCOCCOc1ccc(-c2c(-c3ccccc3)nn3c(C(F)(F)F)cc(C(F)(F)F)nc23)cc1)COc1ccc(OCc2ccccc2)c(OCCCc2ccccc2)c1`, the half-maximal degradation concentration (DC50) is 2 nM in [10]; less than 100 nM in experiment [11]; less than 100 nM in [12]; 2 nM in experiment [13]; less than 100 nM in experiment [14]; less than 100 nM in experiment [15].
Compound `O=C1Nc2ccc(Br)cc2/C1=C/c1cc(O)c(O)c(Br)c1` returned an ED in experiment [5] of 50 nM.
Compound `Cc1ccccc1/N=N/c1ccc(/N=N/c2c(OCCCCCCCCCCOc3cc(O)cc4oc(=O)cc(-c5ccccc5)c34)ccc3ccccc23)c(C)c1` had an ED in experiment [6] of 5 µM.
As to `Cc1ccc(C(=O)N(CCCNC(=O)CCCCCCCCN2CCN(S(=O)(=O)c3ccc(NC(=S)NCc4cccnc4)cc3)CC2)[C@@H](c2nc3cc(Cl)ccc3c(=O)n2Cc2ccccc2)C(C)C)cc1`, the IC50 in [16] worked out at 40 nM. The Activity in experiment [17] worked out at 91%.

The record behind these values is ChEMBL document CHEMBL5380785, “Application of Novel Degraders Employing Autophagy for Expediting Medicinal Research” (J Med Chem, 2023).
